{
  "source": "patent US7312219B2",
  "about": "“Heteroaromatic inhibitors of fructose 1,6-bisphosphatase” (Metabasis Therapeutics, Inc., priority 1998, dated 2007)",
  "key": {"[1]": {"test_system": "Fasted Rat", "experiment": "Glucose Lowering Following Oral Administration to the Fasted Rat", "format": "in vivo", "conditions": "oral gavage, 18-hour fasted rats, dose 30 mg/kg, time point 2 h, relative to saline controls", "method": "Compounds were administered by oral gavage to 18-hour fasted, Sprague Dawley rats (250–300 g, n =3/4/group). Phosphonic acids were prepared in deionized water, and the solution adjusted to neutrality with solidum hydroxide. Prodrugs were dissolved in polyethylene glycol (mw 400). […] The table below indicates the maximum glucose lowering achieved relative to control animals dosed with saline."}, "[2]": {"test_system": "db/db Mouse", "experiment": "Hepatic Glycogen Levels in the db/db Mouse", "format": "in vivo", "conditions": "db/db mice", "method": "Db/db mice and their nondiabetic db/+ littermates were obtained at 8 weeks of age (Jackson Labs., Bar Harbor, Me.) and enrolled in the study at 11 weeks of age. […] Db/+ mice were treated with saline according to the same schedule. At 6 pm, mice were anesthetized with halothane and a small section of liver (0.5 g) was removed by the freeze-clamping technique. The liver samples were fully frozen by subsequent immersion in liquid nitrogen and then homogenized in 5 volumes of cold 0.6 N perchloric acid. Glycogen content was determined enzymatically in the homogenates by the method of Keppler and Decker (Keppler D and Decker K in Methods of Enzymatic Analysis, Bergmeyer, H U, Ed., Verlag Chemie International, Deerfield Beach, Fla., 1974)."}, "[3]": {"test_system": "Zucker Diabetic Fatty rats", "experiment": "Blood Glucose Lowering in Zucker Diabetic Fatty Rats, Oral", "format": "in vivo, rat", "method": "Zucker Diabetic Fatty rats were purchased from Genetics Models Inc. (Indiannapolis, Ind.) at 8 weeks of age and fed the recommended Purina 5008 diet. At the age of 12 weeks, 16 animals with fed blood glucose levels between 500 and 700 mg/dl were selected and divided into two groups (n=8) with statistically equivalent average blood glucose levels. […] The drug solution for this treatment was prepared at 25 mg/ml in deionized water and adjusted to neutrality by dropwise addition of 5 N NaOH. A second group of rats (n=8) was dosed orally with saline, in parallel. Blood glucose was measured in each rat just prior to drug or saline administration and 6 hours post administration. A HemoCue blood glucose analyzer (HemoCue Inc., Mission Viejo, Calif.) was used for these measurements according to the manufacturer's instructions."}, "[4]": {"experiment": "Analysis of Drug Levels and Liver Accumulation in Rats", "format": "in vivo, rat", "conditions": "Sprague-Dawley, rat, iv; fasted rats, 10 mgs/kg i.v., one hour post injection, plasma; read-out: Plasma Conc.", "method": "The compound was dissolved in water and the solution adjusted to neutrality with NaOH. One hour post injection rats were anesthetized with halothane and a liver biopsy (approx. 1 g) was taken as well as a blood sample (2 ml) from the posterior vena cava. A heparin flushed syringe and needle were used for blood collection. The liver sample was immediately homogenized in ice-cold 10% perchloric acid (3 ml), centrifuged, and the supernatant neutralized with ⅓rd volume of 3 M KOH/3 M KHCO3. […] Plasma was prepared from the blood sample by centrifugation and extracted by addition of methanol to 60% (v/v). The methanolic extract was clarified by centrifugation and filtration and then analyzed by HPLC as described above."}, "[5]": {"test_system": "Gluconeogenesis in Zucker Diabetic Fatty Rats", "experiment": "Inhibition of Gluconeogenesis by FBPase Inhibitor in Zucker Diabetic Fatty Rats (14C-bicarbonate to 14C-glucose)", "format": "in vivo, rat", "conditions": "after 6-hour infusion at 3 mg/kg/h, n=3/group", "method": "Following a 6-hour infusion of 3.26 at 3 mg/kg/h or saline to Zucker Diabetic Fatty rats (n=3/group) as described in Example K, a bolus of ^14C-bicarbonate (40 μCi/100 g body weight) was administered via the tail vein catheter. 20 minutes later, a blood sample (0.6 mL) was taken via the tail artery. Blood (0.5 ml) was diluted into 6 mL deionized water and protein precipitated by addition of 1 mL zinc sulfate (0.3 N) and 1 mL barium hydroxide (0.3 N). The mixture was centrifuged (20 minutes, 1000×g) and 5 mL of the resulting supernatant was then combined with 1 g of a mixed bed ion exchange resin (1 part AG 50W-X8, 100–200 mesh, hydrogen form, and 2 parts AG 1-X8, 100–200 mesh, acetate form) to separate ^14-C-bicabonate from ^14C-glucose. The slurry was shaken at room temperature for four hours and then allowed to settle. An aliquot of the supernatant (0.5 mL) was then counted in 5 mL scintillation cocktail. The percentage inhibition of gluconeogenesis in drug-treated rats was calculated by dividing the average cpm of ^14C-glucose in samples from drug-treated animals by those from saline-injected animals."}, "[6]": {"test_system": "Zucker Diabetic Fatty rats", "experiment": "Blood Glucose Lowering in Zucker Diabetic Fatty Rats, Intravenous", "format": "in vivo, rat", "conditions": "six hour time point", "method": "12-week old Zucker Diabetic Fatty rats (Genetics Models Inc., Indiannapolis, Ind.) maintained on Purina 5008 diet were instrumented with tail artery and tail vein catethers at 8 am on the day of the study. Food was removed for the remainder of the day. […] Blood samples were obtained from the tail artery catheter at the start of the infusions, and at hourly intervals thereafter. Glucose was measured in the samples by means of a HemoCue analyzer (HemoCue Inc., Mission Viejo, Calif.) according to the manufacturer's instructions."}, "[7]": {"test_system": "Fasted Rats", "experiment": "Blood Glucose Lowering Following Intravenous Administration to Fasted Rats", "format": "in vivo, rat", "conditions": "18 h fasted Sprague Dawley rats, relative to saline-treated controls", "method": "Inhibitors were disolved in water and the solution adjusted to neutrality with NaOH. Blood samples were obtained from the tail vein of conscious animals just prior to injection and after 1 hour. Blood glucose was measured using a HemoCue Inc. glucose analyzer according to the instructions of the manufacturer."}},
  "data": [
    {"smiles": "CSc1sc(N)nc1-c1ccc(P(=O)(O)O)o1", "note": "[Compound 3.26, 2-Amino-5-methylthio-4-[2-(5-phosphono)furanyl]thiazole]", "values": [
      {"measurement": "% Glucose Lowering (maximum)", "setting": "[1]", "value": 70, "unit": "%"},
      {"measurement": "liver glycogen stores", "setting": "[2]; 100 mg/kg oral at 8 am and 2 pm, liver taken 6 pm", "value": "reduction of glycogen stores to levels that approached those of nondiabetic db/+ mice"},
      {"measurement": "Liver Glycogen", "setting": "[2]; 100 mg/kg orally at 8 am and 2 pm, Evening, 6 pm", "value": "34.4 ± 7.1 (n = 3) μmol glucose/g"},
      {"measurement": "lowering of blood glucose relative to saline treated controls", "setting": "[3]; 100 mg/kg oral, 6 hours post administration, p=0.01", "value": 15.4, "unit": "%"},
      {"measurement": "Blood Glucose, 7 pm", "setting": "[3]; 6 hours post 100 mg/kg oral gavage, n=8", "value": "497 ± 14", "unit": "mg/dL"},
      {"measurement": "Blood Glucose, 1 pm", "setting": "[3]; just prior to administration of 100 mg/kg by oral gavage, n=8", "value": "573 ± 26", "unit": "mg/dL"},
      {"measurement": "concentration at 1 h", "setting": "[4]", "value": "56 ± 2", "unit": "µM"},
      {"measurement": "14C-Glucose production inhibited", "setting": "[5]", "value": 75, "unit": "%"},
      {"measurement": "decrease in blood glucose relative to saline-infused controls", "setting": "[6]; 3 mg/kg/h tail vein infusion", "value": 29, "unit": "%"},
      {"measurement": "decrease in blood glucose relative to saline-infused controls", "setting": "[6]; 30 mg/kg/h tail vein infusion", "value": 39, "unit": "%"},
      {"measurement": "blood glucose lowering", "setting": "[7]; 3 mg/kg intravenous", "value": 52, "unit": "%"},
      {"measurement": "inhibition in vivo at 10 mg/kg", "setting": "[7]; Rattus norvegicus, iv, 10 mg/kg i.v., 1 hour", "value": 73, "unit": "%"}
    ]}
  ]
}
